The values that follow come from PMC2361671, “Preclinical pharmacokinetics and metabolism of a novel prototype DNA-PK inhibitor NU7026” (British Journal of Cancer, 2005).

For orientation: IC50 means the point on the concentration scale where inhibition reaches its midpoint. In general, half-life refers to the time needed for the level to fall by half in the phase considered. Read a low half-life as fast loss. The Cmax is the highest concentration seen after dosing. In general, bioavailability refers to dose-corrected exposure relative to a reference, in per cent.

Like-named read-outs stand apart in the source and are kept apart here. Some results are limits rather than exact numbers.

One data set deals with DNA-PK (Homo sapiens, UniProt P78527). Put plainly: DNA-PK inhibition. It is filed as biochemical. Particulars: stated in results, no method or reference given; read-out: IC50 inhibiting DNA-PK.
Data set [1] can be described thus: Plasma pharmacokinetics in mice (LC/MS/MS). It is filed as in vivo, Female BALB/c mice. The procedure: (§1) NU7026 was formulated in 10% DMSO and 5% Tween 20 in saline for i.p. and perorally (p.o.) administration at 20 and 50 mg kg^−1, respectively. For i.v. dosing at 5 mg kg^−1, NU7026 was formulated in 10% ethanol, 25% PEG 200 and 5% Tween 20 in saline. Control animals received the vehicle alone. Groups of three mice were injected per time point. Blood was collected by cardiac puncture following transient anaesthesia with halothane at 0.083, 0.25, 0.5, 1, 2, 4, 6, and 24 h post administration. Following centrifugation at 1500 g for 2 min to obtain plasma, samples were stored at −20°C until analysis. For urinary excretion studies, NU7026 was administered at 5 mg kg^−1 i.v. Urine was collected over 24 h in metabolic cages, and stored at −20°C until required.
Samples were analysed by liquid chromatography tandem mass spectrometry (LC/MS/MS). Chromatography was performed using a 50 × 4.6 mm ID 5 μm zwitterionic ABZ+ column (Supelco, Poole, Dorset, UK) and a gradient of 20% methanol (MeOH) in formic acid (0.1%) to 100% MeOH over 3 min, followed by an isocratic period at a flow rate of 0.6 ml min^−1. The total run time was 7 min. Detection by multiple reaction monitoring was performed on a TSQ700 triple quadrupole mass spectrometer equipped with an electrospray source and operated in positive ion mode (Thermoquest Ltd, Hemel Hempstead, Herts, UK). The heated capillary was maintained at 280°C and at a voltage of 4.5 kV. The following transitions were monitored: m/z (mass to charge ratio) 282.4 → m/z 171 for NU7026; m/z 262.3 → m/z 121 for NU7031; m/z 300 → m/z 256 for NU7119; m/z 300 → m/z 238 for NU7200. Calibration standards (20, 200, 500, 1000, 2000, 5000, 10 000, 20 000 and 50 000 nM) were prepared in blank mouse plasma. Following the addition of internal standard (30 μl of 2 μM solution of NU7031), plasma proteins were precipitated with 300 μl MeOH. Samples were then centrifuged and 20 μl of supernatant was injected onto the column. Peak area was plotted against concentration and unknown concentrations derived from the linear plot (analysed with Prism 2.01, Graphpad Software, San Diego, CA, USA).
Pharmacokinetic parameters were evaluated by noncompartmental analysis (model 200 for p.o. and i.p. administration and 201 for i.v. administration) using WinNonlin® Professional Version 3.2 (Pharsight Corporation, Mountain View, CA, USA). For simulation studies, parameters were derived from compartmental analysis.

Data set [2] concerns the target phosphoinositide 3-kinase. Also noted: method as in Veuger et al, 2003, 2004; Griffin et al 2005. Particulars: ref Veuger et al, 2003, 2004; Griffin et al 2005; cited from earlier work.
Data set [3] deals with ataxia telangiectasia and rad 3-related kinases (ATR). More on the design: method as in Veuger et al, 2003, 2004; Griffin et al 2005. As to conditions: ref Veuger et al, 2003, 2004; Griffin et al 2005; cited from earlier work.
The target of data set [4] is ataxia telangiectasia mutated kinase (ATM). More on the design: method as in Veuger et al, 2003, 2004; Griffin et al 2005. Particulars: ref Veuger et al, 2003, 2004; Griffin et al 2005; cited from earlier work.
The nature of data set [5]: Solubility (for constant infusion with osmotic minipumps). Particulars: for dosing by constant infusion with osmotic minipumps. It is filed as physicochemical.
Data set [6] deals with CH1 human ovarian carcinoma cells. Put plainly: Clonogenic survival assay / radiosensitisation. It is filed as cell-based. As to conditions: for cell count, % of the radiation control group: P<0.01. How it is done:
These experiments were not designed as classical radiosensitisation experiments, that is, radiation dose finding study, but rather as experiments to investigate the minimum drug exposure required to observe radiosensitisation. CH1 human ovarian carcinoma cells were chosen as as a model because of their relative radiosensitivity (Kelland, personnal communication). They were grown as monolayers in Dubelcco's modified Eagle's medium (Invitrogen, Paisley, Scotland) augmented with 10% heat-inactivated fetal calf serum, 2 mM L-glutamine, minimal essential medium nonessential amino acid (Invitrogen) and 0.5 μg ml^−1 hydrocortisone in a 6.5% CO2/93.5% air atmosphere.
Cells were seeded at 1000 per 10 ml into […] flasks and left to attach overnight. Each group consisted of triplicate flasks. Following the addition of NU7026 (10 μM) or dimethyl sulphoxide (DMSO) solvent control for 24 h (final concentration of DMSO was 0.5%), cells were irradiated with a cobalt source (^60Co) for 3 min and 9 s at a distance of 40 cm to give a total dose of 2 Gy, or 2 min and 49 s at a distance of 30 cm to give a final dose of 3 Gy, or 6 min and 18 s at a distance of 40 cm to give a total dose of 4 Gy. Control cells were not treated with either drug or ionising radiation. Group 2 cells were treated with NU7026 only and Group 3 cells were irradiated only. Groups 4–7 were treated with NU7026 and irradiated with 2, 3 or 4 Gy. The drug was washed off by aspiration of the medium and rinsing with 10 mM phosphate-buffered saline (PBS) 2 h (Group 4), 4 h (Group 5), 6 h (Group 6) and 24 h (Group 7) after exposure. Following the addition of drug-free medium, cells were left to grow until colonies were visible. Colonies were then counted after 9 days and expressed as a percentage of controls. The doubling time of the cells was approximately 16 h.

The nature of data set [7]: Urinary excretion / metabolite profile in 24 h mouse urine. Particulars: mice, NU7026 5 mg kg^−1 i.v., LC/MS ion current. It is filed as in vivo, Female BALB/c mice. How it is done:
as §1
For metabolism studies, LC/MS and LC/MS/MS were carried out on an LCQ ion trap instrument (ThermoFinnigan, UK). Separation was achieved using the same column as above. A linear gradient of 90% formic acid (0.1%) : 10% MeOH to 10% formic acid (0.1%) : 90% MeOH was run at 1 ml min^−1 from 0.5 to 6.5 min followed by 3.5 min isocratic. The capillary temperature was set to 200°C and the scan range from m/z 50 to m/z 850. For confirmation of metabolite structures, metabolites were spiked in control matrix and MS/MS fragmentation patterns and retention times were compared to those of biological samples.

The mark [8] stands for this setting: Table 3: each compound at 20 mg kg^−1 i.p. to mice, plasma.
The mark [9] stands for this setting: female, BALB/c, mouse, plasma, ip, 20 mg/kg, Table 3: each compound at 20 mg kg^−1 i.p. to mice, plasma.
The mark [10] stands for this setting: Table 2: parent and metabolites in plasma after NU7026 at 5 mg kg^−1 i.v. to mice.

With `C[C@@H]1CN(c2cc(=O)n3ccc4ccccc4c3n2)C[C@H](C)O1` [NU7107, 2-((2S,6R)-2,6-dimethylmorpholin-4-yl)-pyrimido[2,1-a]isoquinolin-4-one], the IC50 on DNA-PK was more than 10 µM. In data set [1] (setting [8]), the AUC last is 12165 nmol·L/h, the Cl obs. turned out to be 0.11 L/h and the Vd was 0.12 L. Moreover, the half-life in data set [1] (female, BALB/c, mouse, ip, Table 3: each compound at 20 mg kg^−1 i.p. to mice, plasma) is 47.4 min. In data set [1] (female, BALB/c, mouse, ip, Table 3: each compound at 20 mg kg^−1 i.p. to mice, plasma, read-out: Tmax), the Tmax was determined as 15 min. The molecule further showed a Cmax in data set [1] (setting [9]) of 10.4 µM. In addition, in data set [1] (mice, 20 mg kg^−1 i.p.), the “decrease in plasma clearance compared with NU7026” value is recorded as “four-fold” and the “plasma level 6 h post administration” value was “still detectable”.
On to `O=c1cc(N2CCOCC2)oc2c1ccc1ccccc12` [NU7026, 2-(morpholin-4-yl)-benzo[H]chromen-4-one], for which the IC50 is 13 µM in data set [2], more than 100 µM in data set [3] and more than 100 µM in data set [4]. In addition, the solubility entry in data set [5] is given as “insufficient solubility”. For the same molecule, the AUC last in data set [1] (setting [10]) was found to be 3616 nmol·L/h; in data set [1] (mice, 5 mg kg^−1 i.v., plasma) it was 3616 nM l h^−1; in data set [1] (mice, 20 mg kg^−1 i.p., plasma), 2940 nM l h^−1; in data set [1] (mice, 50 mg kg^−1 p.o., plasma), 5191 nM l h^−1. Moreover, the Cl obs. in data set [1] (setting [8]) was 0.44 L/h; in data set [1] (mice, 20 mg kg^−1 i.p., plasma) it was 0.44 L/h; in data set [1] (mice, 50 mg kg^−1 p.o., plasma), 0.63 L/h. For the same molecule, the Vd in data set [1] (setting [8]) is 0.55 L; in data set [1] (female, BALB/c, mouse, plasma, iv, mice, 5 mg kg^−1 i.v., based on the elimination phase, read-out: Vd), 0.16 L; in data set [1] (mice, 20 mg kg^−1 i.p., based on the elimination phase), 0.55 L; in data set [1] (mice, 50 mg kg^−1 p.o., based on the elimination phase), 1.34 L. The molecule further showed a t1/2 in data set [1] (setting [8]) of 52.2 min. Moreover, the half-life in data set [1] (female, BALB/c, mouse, ip, mice, 20 mg kg^−1 i.p., plasma) is 52.2 min; in data set [1] (female, BALB/c, mouse, iv, mice, 5 mg kg^−1 i.v., plasma) it was 73.2 min; in data set [1] (female, BALB/c, mouse, po, mice, 50 mg kg^−1 p.o., plasma), 88.8 min. Also, the Tmax was found to be 4.98 min in data set [1] (female, BALB/c, mouse, ip, mice, 20 mg kg^−1 i.p., plasma, read-out: Tmax); 0 min in data set [1] (female, BALB/c, mouse, iv, mice, 5 mg kg^−1 i.v., plasma, read-out: Tmax); 60 min in data set [1] (female, BALB/c, mouse, mice, oral 50 mg kg^−1, plasma, read-out: time of maximum concentration after administration). Further, the bioavailability in data set [1] (female, BALB/c, mouse, plasma, intraperitoneal, mice, i.p. 20 mg kg^−1, assuming linear i.v. pharmacokinetics) came out at 20%. The Cmax was 5.12 µM in data set [1] (setting [9]); 7.36 µM in data set [1] (female, BALB/c, mouse, plasma, ip, 20 mg/kg, mice, 20 mg kg^−1 i.p., noncompartmental); 5.12 µM in data set [1] (female, BALB/c, mouse, plasma, iv, 5 mg/kg, mice, 5 mg kg^−1 i.v., noncompartmental); 2.23 µM in data set [1] (female, BALB/c, mouse, plasma, po, 50 mg/kg, mice, 50 mg kg^−1 p.o., noncompartmental); less than 2.5 µM in data set [1] (female, BALB/c, mouse, plasma, po, 50 mg/kg, mice, p.o. 50 mg kg^−1 (discussion)). Besides, the clearance is 1.5 mL/min in data set [1] (female, BALB/c, mouse, plasma, iv, 5 mg/kg, mice, 5 mg kg^−1 i.v., plasma, read-out: Cl obs. (converted)) and 1.8 mL/min in data set [1] (female, BALB/c, mouse, plasma, iv, 5 mg/kg, mice, 5 mg kg^−1 intravenous (abstract), read-out: plasma clearance (converted)). For the same molecule, the “plasma level at 4 h post administration” value in data set [1] (mice, i.v. 5 mg kg^−1) is “undetectable”. In addition, the “time compound levels were above 10 μM” value in data set [1] (mice, i.v. administration, plasma) is reported as “less than 1 h”. The maximum concentration in data set [1] (mice, oral 50 mg kg^−1, plasma) is 2.2 µM. In data set [1] (mice, p.o. 50 mg kg^−1 (abstract prints 20 mg kg^−1), based on linear i.v. pharmacokinetics), the oral bioavailability stood at 15%. Besides, the “cell survival, % of the solvent-treated group” value in data set [6] (10 μM NU7026 combined with 2 Gy radiation) was found to be 15%; in data set [6] (10 μM NU7026 combined with 3 Gy radiation), 9%; in data set [6] (10 μM NU7026 combined with 4 Gy radiation), 1%. Moreover, the “radiosensitisation vs radiation alone” value in data set [6] (2 h treatment with 10 μM NU7026 + 3 Gy, t test P>0.1) was “no significant difference”. Further, the “cell count, % of the radiation control group” value turned out to be 61% in data set [6] (4 h exposure to 10 μM NU7026 + 3 Gy), 47% in data set [6] (6 h exposure to 10 μM NU7026 + 3 Gy) and 13% in data set [6] (24 h exposure to 10 μM NU7026 + 3 Gy). Besides, the activity at 10 µM in data set [6] (Homo sapiens, Ovarian carcinoma cell, NU7026 alone, 10 μM for 24 h, no radiation, read-out: surviving fraction, % of control cells) amounted to 91 ± 13%.
As to `O=c1cc(N2CCOC(O)C2)oc2c1ccc1ccccc12` (centres unmarked) [M1], in data set [7], the “level in 24 h urine samples” value is “significant amounts”.
For `O=c1cc(NCCOCCO)oc2c1ccc1ccccc12` [NU7200, 2-[2-(2-hydroxyethoxy)-ethylamino]-benzo[H]chromen-4-one], the “level in 24 h urine samples” value in data set [7] is recorded as “significant amounts”. In addition, in data set [1] (setting [10]), the AUC last was determined as 143 nmol·L/h.
`O=c1cc(N(CCO)CCO)oc2c1ccc1ccccc12` [NU7199, 2-[bis-(2-hydroxyethyl)-amino]-benzo[H]chromen-4-one]: the “level in 24 h urine samples” value in data set [7] was “significant amounts”. Besides, the AUC last in data set [1] (setting [10]) was determined as 414 nmol·L/h.
